Test results: patent US20240194290A1, “HIDDEN ANTIBIOTICS IN THE HUMAN PROTEOME” (THE TRUSTEES OF THE UNIVERSITY OF PENNSYLVANIA, priority 2021, published 2024)
Ends that are not written are not given here.

Tests used:
[1] = tested on: Gram-negative gut commensals (A. muciniphila and Bacteroidetes species); assay: Antibacterial assay against Gram-negative gut commensals; type: cell-based
Text: The 13 most abundant members of the human gut microbiota^15 were exposed to increasing concentrations of the peptides. Species from four different phyla were used to determine susceptibility to the encrypted peptides: Akkermansia muciniphila (Verrucomicrobia); Bacteroides fragilis, Bacteroides thetaiotaomicron, Bacteroides vulgatus, Bacteroides uniformis, Bacteroides eggerthi, Parabacteroidetes distasonis, and Prevotella copri (Bacteroidetes); Collinsella aerofaciens (Actinobacteria); and Clostridium scindens and Clostridium spiroforme (Firmicutes).
Methods: Bacterial strains and media. […] Minimum inhibitory concentrations (MICs) of peptides were determined using the broth microdilution technique in LB, NB and supplemented BHI with an initial inoculum of 5×10^6 cells in nontreated polystyrene microtiter plates (Corning, USA). […]

P. aeruginosa PAO1 [2] = assay: Neutropenic thigh infection mouse model; type: in vivo, Pseudomonas aeruginosa; details: for anti-infective activity (FIG. 4E): alone, P. aeruginosa PAO1; for decrease of bacterial counts compared to untreated controls: mice, 25 μmol L^−1 intramuscular, three days post-treatment, P. aeruginosa
Text: (§1) FIG. 4. Anti-infective activity and synergistic interactions of encrypted peptides in vivo. (FIG. 4A) Schematic of the skin abscess mouse model used to assess the anti-infective activity of selected encrypted peptides from plasma proteins. […] (FIG. 4C) Mouse weight was monitored throughout the experiment (2 days) to rule out potential toxic effects of the encrypted peptides. (FIG. 4D) Schematic of the neutropenic thigh infection mouse model used to assess the anti-infective activity of selected encrypted peptides from plasma proteins. […] (FIG. 4F) Mouse weight was monitored throughout the experiment (8 days) to rule out potential toxic effects of the encrypted peptides.
Next, the efficacy of the same encrypted peptides (SCUB1-SKE25 and SCUB3-MLP22) was assessed in monotherapy and in combination therapy in a murine thigh infection model (FIG. 4D). This preclinical model is sensitive, standardized, and widely used for assessing antibiotic translatability^43,44. Briefly, mice were rendered neutropenic by cyclophosphamide treatment prior to intramuscular infection with 10^6 cells mL^−1 of the bacterial pathogens P. aeruginosa and A. baumannii (FIG. 4E). Either a single dose of each encrypted peptide (at 25 μmol L^−1) or their combination (also at 25 μmol L^−1) were delivered to the infected site via intramuscular administration. Three days post-treatment, on average the peptides reduced the bacterial load of P. aeruginosa and A. baumannii by 4 and 2 orders of magnitude, respectively, compared to untreated mice.
(§2) Methods: Skin abscess infection mouse model. A. baumannii ATCC19606 and P. aeruginosa strain PAO1 were used to infect the murine skin. Briefly, bacteria were grown in tryptic soy broth (TSB) medium. Subsequently, cells were washed twice with sterile PBS (pH 7.4, 13,000 rpm for 1 min), and resuspended to a final concentration of 1×10^5 and 1×10^6 CFU/20 μL for A. baumannii and P. aeruginosa, respectively. Female CD-1 mice (six-weeks old) were anesthetized with isoflurane and had their backs shaved and a superficial linear skin abrasion was made with a needle in order to damage the stratum corneum and upper-layer of the epidermis. […] Animals were euthanized and the area of scarified skin was excised two- and four-days post-infection, homogenized using a bead beater for 20 minutes (25 Hz), and 10-fold serially diluted for CFU quantification. […] Prior to each injection, mice were anesthetized with isoflurane and monitored (respiratory rate and pedal reflexes). Next, we monitored the formation of the abscess and euthanized the mice. The infected area was excised three-days post-infection, homogenized using a bead beater for 20 min (25 Hz), and 10-fold serially diluted for CFU quantification. […]

A. baumannii ATCC19606 = assay: Skin abscess infection mouse model; type: in vivo, Acinetobacter baumannii; details: for anti-infective activity (FIG. 4B): 25 μmol L^−1, A. baumannii ATCC19606; for reduction of bacterial load / bacterial counts: mice, single dose 25 μmol L^−1 to infected area, A. baumannii
Text: as §1
(§3) To test whether the peptides retain their antimicrobial activity in a complex living system, their properties in two mouse models were assessed. […] Since these peptides are mostly found in plasma, a relevant skin abscess mouse model was used to test their anti-infective activity (FIG. 4A). Mice were infected with bacterial loads of 10^5 and 10^6 cells in 20 μL of the clinically relevant Gram-negative pathogens P. aeruginosa and A. baumannii, respectively (FIG. 4B). […] In order to validate the synergistic effects obtained in vitro (FIG. 3D and FIG. 9), infected mice were treated with combinations of encrypted peptides (FIG. 4B). […] No damage or deleterious effects exerted by the peptides were detected in the mice in any of our experiments.
as §2, with “epidermis. An aliquot of 20 μL containing the bacterial load in PBS was inoculated over each defined area containing the scratch with a pipette tip.” for “epidermis.”

P. aeruginosa PAO1 [3] = assay: Skin abscess infection mouse model; type: in vivo, Pseudomonas aeruginosa; details: for anti-infective activity (FIG. 4B): 25 μmol L^−1, P. aeruginosa PAO1; for reduction of bacterial load / bacterial counts: mice, single dose 25 μmol L^−1 to infected area, P. aeruginosa
Text: as §1, §3
as §2, with “epidermis. An aliquot of 20 μL containing the bacterial load in PBS was inoculated over each defined area containing the scratch with a pipette tip.” for “epidermis.”

Sequence	activity against Gram-negative gut commensals [1]	anti-infective activity (FIG. 4E) (P. aeruginosa PAO1 [2])	decrease of bacterial counts compared to untreated controls (P. aeruginosa PAO1 [2])	anti-infective activity (FIG. 4B) (A. baumannii ATCC19606)	reduction of bacterial load / bacterial counts (A. baumannii ATCC19606)	anti-infective activity (FIG. 4B) (P. aeruginosa PAO1 [3])	reduction of bacterial load / bacterial counts (P. aeruginosa PAO1 [3])
MLPKSFIKLLRSKVSSFLRPYK [SCUB3-MLP22]	potent activity	reduced infections	3 orders of magnitude	inhibitory activity	3 orders of magnitude	inhibitory activity	3 orders of magnitude
SKEMFPRSFIKLLRSKVSRFLRPYK [SCUB1-SKE25]	potent activity	reduced infections	3 orders of magnitude	inhibitory activity	3 orders of magnitude	inhibitory activity	3 orders of magnitude
